In patent US12502434B2, “Compound comprising EZH2 inhibitor and E3 ligase binder and pharmaceutical composition for preventing or treating EZH2-associated disease comprising same as active ingredient” (DAEGU-GYEONGBUK MEDICAL INNOVATION FOUNDATION, priority 2019, dated 2025):
Read-outs that look alike come from different tables or passages of the source.

Target: T1, EZH2 protein in LS174T cells (Homo sapiens, UniProt Q15910)
T1 construct: endogenous in cells; host or cells: LS174T
Assay: Proteolytic effect in colorectal cancer cells (Western blotting)
Type: cell-based
Protocol: After 72 hours of the treatment, the cells were collected and lysed using RIPA buffer (50 mM Tris, pH 7.5, 150 mM NaCl, 1% Triton X-100, 0.1% SDS, […], 0.5% deoxycholate, and protease inhibitor cocktail), followed by sonication (30 sec on/30 sec off, 5 cycles) to prepare a cell lysate.

[1] = EZH2 protein, LS174T cells, 1 μM, 72 hours
[2] = EZH2 protein, LS174T cells, 1 uM, 72 hours, Western blotting

T1 sequence (Q15910 whole entry): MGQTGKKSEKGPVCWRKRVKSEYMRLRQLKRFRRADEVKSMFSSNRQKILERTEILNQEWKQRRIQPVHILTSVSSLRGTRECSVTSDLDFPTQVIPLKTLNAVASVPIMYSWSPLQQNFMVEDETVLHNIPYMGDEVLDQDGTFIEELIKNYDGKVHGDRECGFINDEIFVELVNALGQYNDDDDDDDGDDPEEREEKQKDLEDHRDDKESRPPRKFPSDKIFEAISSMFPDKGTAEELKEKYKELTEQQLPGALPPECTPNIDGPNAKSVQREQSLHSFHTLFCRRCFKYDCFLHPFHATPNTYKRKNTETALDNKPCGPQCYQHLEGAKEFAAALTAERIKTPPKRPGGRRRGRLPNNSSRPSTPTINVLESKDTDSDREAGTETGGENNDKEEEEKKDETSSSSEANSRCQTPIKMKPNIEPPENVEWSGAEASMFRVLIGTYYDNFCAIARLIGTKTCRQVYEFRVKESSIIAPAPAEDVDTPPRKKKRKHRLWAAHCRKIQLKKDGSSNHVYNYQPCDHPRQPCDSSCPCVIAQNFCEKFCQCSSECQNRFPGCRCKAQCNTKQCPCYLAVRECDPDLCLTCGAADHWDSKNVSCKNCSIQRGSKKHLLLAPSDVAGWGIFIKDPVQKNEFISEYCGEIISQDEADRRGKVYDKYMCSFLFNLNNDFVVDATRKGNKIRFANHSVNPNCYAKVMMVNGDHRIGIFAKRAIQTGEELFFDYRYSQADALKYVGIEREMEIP
T1 sequence (O75530 whole entry partner): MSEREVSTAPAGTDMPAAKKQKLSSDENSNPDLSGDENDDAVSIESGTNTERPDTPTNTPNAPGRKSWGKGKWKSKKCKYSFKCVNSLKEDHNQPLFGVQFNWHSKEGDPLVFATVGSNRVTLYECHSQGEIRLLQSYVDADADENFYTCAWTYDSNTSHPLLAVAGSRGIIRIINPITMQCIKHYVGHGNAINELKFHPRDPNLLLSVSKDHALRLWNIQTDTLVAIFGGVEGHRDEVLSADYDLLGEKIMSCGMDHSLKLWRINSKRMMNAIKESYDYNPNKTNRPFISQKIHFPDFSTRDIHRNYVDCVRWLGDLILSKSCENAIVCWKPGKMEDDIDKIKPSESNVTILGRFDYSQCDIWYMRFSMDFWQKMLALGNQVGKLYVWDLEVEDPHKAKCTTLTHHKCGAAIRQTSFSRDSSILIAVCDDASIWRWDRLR
T1 sequence (Q15022 whole entry partner): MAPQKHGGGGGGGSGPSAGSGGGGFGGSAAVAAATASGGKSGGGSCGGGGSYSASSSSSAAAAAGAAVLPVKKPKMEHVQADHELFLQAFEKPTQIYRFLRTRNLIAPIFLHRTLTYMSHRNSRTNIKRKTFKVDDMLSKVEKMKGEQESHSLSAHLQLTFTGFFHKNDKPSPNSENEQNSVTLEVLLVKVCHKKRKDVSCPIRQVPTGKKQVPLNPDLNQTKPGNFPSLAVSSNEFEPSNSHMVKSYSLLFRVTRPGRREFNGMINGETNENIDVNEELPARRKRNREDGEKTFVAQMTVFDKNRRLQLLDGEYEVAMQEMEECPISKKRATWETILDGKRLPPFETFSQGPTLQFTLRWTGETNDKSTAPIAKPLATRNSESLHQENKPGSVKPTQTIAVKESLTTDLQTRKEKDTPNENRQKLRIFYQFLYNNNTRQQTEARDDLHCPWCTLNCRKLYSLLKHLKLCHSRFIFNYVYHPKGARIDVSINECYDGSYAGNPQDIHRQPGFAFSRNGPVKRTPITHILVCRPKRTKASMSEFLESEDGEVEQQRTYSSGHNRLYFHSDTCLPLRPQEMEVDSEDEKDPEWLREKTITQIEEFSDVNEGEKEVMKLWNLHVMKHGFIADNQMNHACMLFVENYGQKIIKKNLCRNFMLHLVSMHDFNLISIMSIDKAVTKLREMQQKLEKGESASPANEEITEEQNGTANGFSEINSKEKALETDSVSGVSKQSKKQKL

| Compound | %, degradation at 1 uM [%] | Grade (percent value of the protein degradation when treated with 1 μM) | Grade (percent value of the protein degradation when treated with 1 μM) [1] | %, degradation at 1 uM [2] [%] | effect of degrading EZH2 protein when treated to colorectal cancer cells (in words) (LS174T cells) |
| --- | --- | --- | --- | --- | --- |
| CCN(c1cc(-c2ccc(CN3CCN(CC(=O)NCCOCCCNc4cccc5c4C(=O)N(C4CCC(=O)NC4=O)C5=O)CC3)cc2)cc(C(=O)NCc2c(C)cc(C)[nH]c2=O)c1C)C1CCOCC1 (stereo not shown) [Example 16, N-((4,6-dimethyl-2-oxo-1,2-dihydropyridine-3-yl)methyl)-4′-((4-(2-((2-(3-((2-(2,6-dioxopiperidine-3-yl)-1,3-dioxoisoindoline-4-yl)amino)propoxy)ethyl)amino)-2-oxoethyl)piperazine-1-yl)methyl)-5-(ethyl(tetrahydro-2H-pyran-4-yl)amino)-4-methyl-[1,1′-biphenyl]-3-carboxamide] | 5.51 | D (key: A: >75%; B: 50-75%; C: 25-50%; D: <25%) | – | – | – |
| CCN(c1cc(-c2ccc(CN3CCN(CC(=O)N4CCC5(CCN(CCCC(=O)N[C@H](C(=O)N6C[C@H](O)C[C@H]6C(=O)NCc6ccc(-c7scnc7C)cc6)C(C)(C)C)CC5)CC4)CC3)cc2)cc(C(=O)NCc2c(C)cc(C)[nH]c2=O)c1C)C1CCOCC1 [Example 45, (2S,4R)-1-((S)-2-(4-(9-(2-(4-((3′-(((4,6-dimethyl-2-oxo-1,2-dihydropyridine-3-yl)methyl)carbamoyl)-5′-(ethyl(tetrahydro-2H-pyran-4-yl)amino)-4′-methyl-[1,1′-biphenyl]-4-yl)methyl)piperazine-1-yl)acetyl)-3,9-diazaspiro[5.5]undecane-3-yl)butanamido)-3,3-dimethylbutanoyl)-4-hydroxy-N-(4-(4-methylthiazole-5-yl)benzyl)pyrrolidine-2-carboxamide] | – | – | A (>75%) | 76.02 | excellent effects |
| CCN(c1cc(-c2ccc(CN3CCN(CC(=O)NCCCCOc4cccc5c4C(=O)N(C4CCC(=O)NC4=O)C5=O)CC3)cc2)cc(C(=O)NCc2c(C)cc(C)[nH]c2=O)c1C)C1CCOCC1 (stereo not shown) [Example 7, N-((4,6-dimethyl-2-oxo-1,2-dihydropyridine-3-yl)methyl)-4′-((4-(2-((4-((2-(2,6-dioxopiperidine-3-yl)-1,3-dioxoisoindoline-4-yl)oxy)butyl)amino)-2-oxoethyl)piperazine-1-yl)methyl)-5-(ethyl(tetrahydro-2H-pyran-4-yl)amino)-4-methyl-[1,1′-biphenyl]-3-carboxamide] | 22.74 | D (key: A: >75%; B: 50-75%; C: 25-50%; D: <25%) | – | – | – |
| CCN(c1cc(-c2ccc(CN3CCN(CC(=O)NCCNc4cccc5c4C(=O)N(C4CCC(=O)NC4=O)C5=O)CC3)cc2)cc(C(=O)NCc2c(C)cc(C)[nH]c2=O)c1C)C1CCOCC1 (stereo not shown) [Example 1, N-((4,6-dimethyl-2-oxo-1,2-dihydropyridine-3-yl)methyl)-4′-((4-(2-((2-((2-(2,6-dioxopiperidine-3-yl)-1,3-dioxoisoindoline-4-yl)amino)ethyl)amino)-2-oxoethyl)piperazine-1-yl)methyl)-5-(ethyl(tetrahydro-2H-pyran-4-yl)amino)-4-methyl-[1,1′-biphenyl]-3-carboxamide] | – | – | D (<25%) | 8.15 | – |
| CCN(c1cc(-c2ccc(CN3CCN(CC(=O)NCCCCCCNc4cccc5c4C(=O)N(C4CCC(=O)NC4=O)C5)CC3)cc2)cc(C(=O)NCc2c(C)cc(C)[nH]c2=O)c1C)C1CCOCC1 (stereo not shown) [Example 22, N-((4,6-dimethyl-2-oxo-1,2-dihydropyridine-3-yl)methyl)-4′-((4-(2-((6-((2-(2,6-dioxopiperidine-3-yl)-3-oxoisoindoline-4-yl)amino)hexyl)amino)-2-oxoethyl)piperazine-1-yl)methyl)-5-(ethyl(tetrahydro-2H-pyran-4-yl)amino)-4-methyl-[1,1′-biphenyl]-3-carboxamide] | – | – | D (<25%) | 0 | – |
| CCN(c1cc(-c2ccc(CN3CCN(CC(=O)NCCOCCCN[C@H](C(=O)N4C[C@H](O)C[C@H]4C(=O)NCc4ccc(-c5scnc5C)cc4)C(C)(C)C)CC3)cc2)cc(C(=O)NCc2c(C)cc(C)[nH]c2=O)c1C)C1CCOCC1 [Example 40, (2S,4R)-1-((S)-2-((3-(2-(2-(4-((3′-(((4,6-dimethyl-2-oxo-1,2-dihydropyridine-3-yl)methyl)carbamoyl)-5′-(ethyl(tetrahydro-2H-pyran-4-yl)amino)-4′-methyl-[1,1′-biphenyl]-4-yl)methyl)piperazine-1-yl)acetamido)ethoxy)propyl)amino)-3,3-dimethylbutanoyl)-4-hydroxy-N-(4-(4-methylthiazole-5-yl)benzyl)pyrrolidine-2-carboxamide] | – | – | D (<25%) | 0 | – |
| CCN(c1cc(-c2ccc(CN3CCN(CC(=O)NCCCOCCNc4cccc5c4C(=O)N(C4CCC(=O)NC4=O)C5=O)CC3)cc2)cc(C(=O)NCc2c(C)cc(C)[nH]c2=O)c1C)C1CCOCC1 (stereo not shown) [Example 15, N-((4,6-dimethyl-2-oxo-1,2-dihydropyridine-3-yl)methyl)-4′-((4-(2-((3-(2-((2-(2,6-dioxopiperidine-3-yl)-1,3-dioxoisoindoline-4-yl)amino)ethoxy)propyl)amino)-2-oxoethyl)piperazine-1-yl)methyl)-5-(ethyl(tetrahydro-2H-pyran-4-yl)amino)-4-methyl-[1,1′-biphenyl]-3-carboxamide] | – | – | D (<25%) | 0 | – |
| CCN(c1cc(-c2ccc(CN3CCN(CC(=O)NCCCCCC(=O)N[C@H](C(=O)N4C[C@H](O)C[C@H]4C(=O)NCc4ccc(-c5scnc5C)cc4)C(C)(C)C)CC3)cc2)cc(C(=O)NCc2c(C)cc(C)[nH]c2=O)c1C)C1CCOCC1 [Example 41, (2S,4R)-1-((S)-2-(6-(2-(4-((3′-(((4,6-dimethyl-2-oxo-1,2-dihydropyridine-3-yl)methyl)carbamoyl)-5′-(ethyl(tetrahydro-2H-pyran-4-yl)amino)-4′-methyl-[1,1′-biphenyl]-4-yl)methyl)piperazine-1-yl)acetamido)hexanamido)-3,3-dimethylbutanoyl)-4-hydroxy-N-(4-(4-methylthiazole-5-yl)benzyl)pyrrolidine-2-carboxamide] | – | – | D (<25%) | 8.36 | – |
| CCN(c1cc(-c2ccc(CN3CCN(Cc4cn(CCOCCNc5cccc6c5C(=O)N(C5CCC(=O)NC5=O)C6=O)nn4)CC3)cc2)cc(C(=O)NCc2c(C)cc(C)[nH]c2=O)c1C)C1CCOCC1 (stereo not shown) [Example 24, N-((4,6-dimethyl-2-oxo-1,2-dihydropyridine-3-yl)methyl)-4′-((4-((1-(2-(2-((2-(2,6-dioxopiperidine-3-yl)-1,3-dioxoisoindoline-4-yl)amino)ethoxy)ethyl)-1H-1,2,3-triazole-4-yl)methyl)piperazine-1-yl)methyl)-5-(ethyl(tetrahydro-2H-pyran-4-yl)amino)-4-methyl-[1,1′-biphenyl]-3-carboxamide] | – | – | D (<25%) | 0 | – |
